According to PubChem BioAssay (NCI):
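Exposure lasted 48 hours, with cells grown in 96-well plates and compounds tested at five concentrations. Here, GI50 denotes the concentration required for 50% inhibition of growth. TGI is the concentration that stops growth completely.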

What was measured:
Test in all cases: NCI-60 cell line screen, 48 h
[1] = tested on: HS 578T breast
[2] = tested on: SK-MEL-5 melanoma
[3] = tested on: M14 melanoma
[4] = tested on: MDA-MB-435
[5] = tested on: SW-620 colon
[6] = tested on: A549 NSCLC
[7] = tested on: RPMI-8226 leukemia
[8] = tested on: BT-549 breast
[9] = tested on: SK-OV-3 ovarian
[10] = tested on: MALME-3M melanoma

SMILES	TGI [1] [µM]	TGI [2] [µM]	TGI [3] [µM]	TGI [4] [µM]	TGI [5] [µM]	TGI [6] [µM]	TGI [7] [µM]	TGI [8] [µM]	TGI [9] [µM]	TGI [10] [µM]	GI50 [1] [µM]	GI50 [2] [µM]	GI50 [3] [µM]	GI50 [4] [µM]	GI50 [5] [µM]	GI50 [6] [µM]	GI50 [7] [µM]	GI50 [8] [µM]	GI50 [9] [µM]	GI50 [10] [µM]
CC(C)=NOC(=O)CNC(=O)C(Cc1ccccc1)NC(=O)C(C)NC(=O)OC(C)(C)C (stereo not given)	> 100	> 100	> 100	> 100	> 100	> 100	> 100	> 100	> 100	> 100	–	–	–	–	–	–	–	–	–	–
CC12CC(=O)Nc3ccccc3N1C(c1ccccc1)=NO2 (stereo not given)	> 100	> 100	> 100	> 100	> 100	> 100	> 100	> 100	> 100	> 100	–	–	–	–	–	–	–	–	–	–
Cc1nc2ccc(S(=O)(=O)NS(=O)(=O)c3ccc(-c4ccccc4)cc3)cc2c(=O)n1NS(=O)(=O)c1ccc(-c2ccccc2)cc1	> 100	> 100	> 100	> 100	> 100	> 100	> 100	> 100	> 100	> 100	–	–	–	–	–	–	–	–	–	–
COc1ccc(-c2c(-c3ccccc3)c(C)c3ccccn23)cc1	> 100	> 100	> 100	> 100	> 100	> 100	> 100	> 100	> 100	> 100	–	–	–	–	–	–	–	–	–	–
O=c1oc(-c2ccc(O)cc2)cc2cc(O)ccc12	64	30.2	55.5	78.9	87.8	> 100	> 100	62.1	74.9	72.3	–	–	–	–	–	–	–	–	–	–
O=C1NC(Nc2ccccc2)=N/C1=C\c1c(Cl)cccc1Cl	95	37.6	83.5	> 100	> 100	52.1	> 100	> 100	49.7	56.5	–	–	–	–	–	–	–	–	–	–
O=C(Nc1cccc(F)c1)c1cc2ccc(O)cc2oc1=Nc1cccc(F)c1	50.8	14.7	> 100	> 100	> 100	> 100	> 100	34.3	> 100	84	–	–	–	–	–	–	–	–	–	–
CC12CCCCC1=C(F)C(F)(F)S2 (stereo not given)	> 80.7	> 91.1	> 83.6	> 86.6	> 73.7	> 100	37.7	43	> 100	58.6	–	–	–	–	–	–	–	–	–	–
CCC(C)C(N)C(=O)N/N=C\c1c2c(nc3ccccc13)-c1cc3c(c(=O)n1C2)COC(=O)[C@]3(O)CC (stereo not given in full)	> 100	0.452	1.6	> 81	> 43.7	14.2	11.4	> 30.2	> 64.5	19.7	–	–	–	–	–	–	–	–	–	–
CCC(=O)N/S(=N/S(=O)(=O)c1ccccc1)C(Cl)(Cl)Cl (stereo not given)	> 100	> 100	> 100	> 100	> 100	> 100	> 100	> 100	> 100	> 100	–	–	–	–	–	–	–	–	–	–
N#Cc1c(Cl)c2cccnc2n2c1nc1ccccc12	10.5	2.6	> 21.4	13.5	4.59	18.6	5.67	9.28	30	3.28	–	–	–	–	–	–	–	–	–	–
O=c1[nH]nc(-c2ccccc2)n1/N=C/c1cccc([N+](=O)[O-])c1	> 100	> 100	> 100	> 100	> 100	> 100	> 100	> 100	> 100	> 100	–	–	–	–	–	–	–	–	–	–
C[C@H]1C2Cc3cc(O)ccc3[C@@]1(C)CCN2CCc1ccc(N)cc1	> 100	27.5	32.4	32.5	36	> 100	> 100	> 100	> 100	34.8	–	–	–	–	–	–	–	–	–	–
COC(=O)c1c(CC(Cc2ccc3c(c2)CCCC3)C(=O)O)ccc2c1CCCC2 (stereo not given)	79.4	> 100	> 100	> 100	> 100	> 100	73.3	> 100	> 100	> 100	–	–	–	–	–	–	–	–	–	–
COc1ccc(-c2oc3cc(OC)c(OC)c(O)c3c(=O)c2OC)cc1	72.3	> 100	> 100	> 100	> 100	> 100	> 100	42	> 100	> 100	–	–	–	–	–	–	–	–	–	–
Cc1ccc(S(=O)C[C@](NC(=O)OCc2ccccc2)(Sc2ccccc2)C(F)F)cc1 (stereo not given in full)	94.3	28	> 100	79.6	40.6	> 100	45	50.9	36	47.6	–	–	–	–	–	–	–	–	–	–
Cc1ccc(O)c(C2=CC3=NNC(=O)C3C(c3cccc(Cl)c3)C2)c1 (stereo not given)	> 100	> 100	> 100	> 100	> 100	> 100	75.9	78.7	> 100	94	–	–	–	–	–	–	–	–	–	–

SMILES	TGI [1] [µM]	TGI [2] [µM]	TGI [3] [µM]	TGI [4] [µM]	TGI [5] [µM]	TGI [6] [µM]	TGI [7] [µM]	TGI [8] [µM]	TGI [9] [µM]	TGI [10] [µM]	GI50 [1] [µM]	GI50 [2] [µM]	GI50 [3] [µM]	GI50 [4] [µM]	GI50 [5] [µM]	GI50 [6] [µM]	GI50 [7] [µM]	GI50 [8] [µM]	GI50 [9] [µM]	GI50 [10] [µM]
Cc1ccc(-c2c(-c3ccccc3)[nH]c(C)c2C(=O)ONC(=O)c2ccccc2)cc1	5.39	18.3	18	5.49	41.8	7.65	29.5	14.1	30	24.7	–	–	–	–	–	–	–	–	–	–
CN=C(Nc1ccc(OC)c2ccccc12)SC	> 10	> 10	> 10	> 10	> 10	> 10	> 10	> 10	> 10	> 10	–	–	–	–	–	–	–	–	–	–
O=C(Cn1cc(Br)c(=O)[nH]c1=O)c1ccc(-c2ccccc2)cc1	> 100	> 29.9	> 24.1	> 55.3	> 100	> 100	> 100	> 23.8	> 100	> 100	–	–	–	–	–	–	–	–	–	–
Cc1ccc(/C=C2\NC(=S)NC2=O)cc1	> 100	> 100	> 100	> 100	> 100	> 100	> 100	> 100	> 100	> 100	–	–	–	–	–	–	–	–	–	–
O=c1[nH]c(SCc2cccc([N+](=O)[O-])c2)nc2nc[nH]c12	> 100	> 100	> 100	> 100	> 100	> 100	> 100	> 100	> 100	> 100	–	–	–	–	–	–	–	–	–	–
CCOC(=O)c1cn2c(n1)sc1cc(OC)ccc12	81.2	> 44.3	> 100	3.48	> 100	> 100	> 100	> 100	> 100	> 100	–	–	–	–	–	–	–	–	–	–
O=[N+]([O-])C(/C(Cl)=C(\Cl)Br)=C(/Cl)SCc1ccccc1	50.7	15	9.15	3.79	4.61	33.5	5.42	7.38	33.7	18.7	–	–	–	–	–	–	–	–	–	–
Cc1ccc(S(=O)(=O)CNC(=O)C(O)(O)C(F)(F)F)cc1	> 100	> 100	> 100	> 100	> 100	> 100	> 100	> 100	> 100	> 100	–	–	–	–	–	–	–	–	–	–
Nc1ccc(-c2nc3ccc(F)cc3s2)cc1Cl	> 100	> 100	> 100	> 100	> 100	> 100	> 100	> 100	> 100	> 100	–	–	–	–	–	–	–	–	–	–
Cc1ccc2nc3n[nH]c(N)c3nc2c1	> 100	> 100	> 100	> 100	> 100	> 100	> 100	> 100	> 100	> 100	–	–	–	–	–	–	–	–	–	–
Clc1ccc(-c2cc(-c3cc4cc(Br)ccc4nc3Cl)on2)cc1	> 50	19.6	37.9	32.1	27.5	> 50	41.7	> 50	> 50	> 50	–	–	–	–	–	–	–	–	–	–
COc1cc(/C=C2\C[C@H]3[C@@H]4CCC5=CC(=O)CC[C@]5(C)[C@H]4CC[C@]3(C)C2=O)cc(OC)c1OC	> 100	15.9	> 42.5	> 39.4	> 100	> 100	9.7	> 95.4	> 100	> 100	–	–	–	–	–	–	–	–	–	–
C/C(=N\NC(=O)c1ccc(Cl)cc1)c1nc2ncccc2[nH]1	93.5	55.6	> 100	> 100	> 100	> 100	> 100	85.5	60.5	48.9	–	–	–	–	–	–	–	–	–	–
Cc1cn(-c2cccc(NC(=O)c3ccc(C)c(Nc4nccc(-c5cccnc5)n4)c3)c2)cn1	5.43	7.46	5.47	3.87	4.76	3.34	5.41	3.11	3.52	2.99	1.77	2.16	2.08	1.86	2.25	1.55	1.87	1.49	2.03	1.51
O=[N+]([O-])c1ccc(C2ON=C(c3ccccc3)N2C23CC4CC(CC(C4)C2)C3)cc1 (stereo not given)	> 10	> 10	> 10	> 10	> 10	> 10	> 10	> 10	> 10	> 10	–	–	–	–	–	–	–	–	–	–
O=C(/C=C1\Sc2ccccc2N=C1CC(=O)c1ccccc1)c1ccccc1	> 100	19	36.4	29.6	22.5	25.1	26.3	37.9	72	23	–	–	–	–	–	–	–	–	–	–
COc1ccc2c(O)c(S(=O)(=O)c3ccc(C)cc3)c(=O)oc2c1OC	> 100	> 100	> 100	> 100	> 100	> 100	> 100	> 100	> 100	> 100	–	–	–	–	–	–	–	–	–	–
